Experimental data taken from PubChem BioAssay (NCI).
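GI50: concentration for 50% inhibition of growth. TGI denotes the concentration required for complete inhibition of growth.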

Experiments:
Test in all cases: growth of human tumour cells (NCI), 384-well format
MDA-MB-231 breast = system: MDA-MB-231 breast
TK-10 renal = system: TK-10 renal
OVCAR-4 ovarian = system: OVCAR-4 ovarian
PC-3 prostate = system: PC-3 prostate
ACHN renal = system: ACHN renal
HCT-15 colon = system: HCT-15 colon
EKVX NSCLC = system: EKVX NSCLC
SK-MEL-28 melanoma = system: SK-MEL-28 melanoma
IGROV1 ovarian = system: IGROV1 ovarian
DU-145 prostate = system: DU-145 prostate
T-47D breast = system: T-47D breast
RXF 393 renal = system: RXF 393 renal
HT29 colon = system: HT29 colon
NCI-H522 lung = system: NCI-H522 lung
U251 glioblastoma = system: U251 glioblastoma
SF-268 CNS = system: SF-268 CNS
HCC-2998 colon = system: HCC-2998 colon
HL-60(TB) leukemia = system: HL-60(TB) leukemia
SNB-19 CNS = system: SNB-19 CNS
OVCAR-8 ovarian = system: OVCAR-8 ovarian
OVCAR-5 ovarian = system: OVCAR-5 ovarian
SF-295 CNS = system: SF-295 CNS
SR leukemia = system: SR leukemia
NCI-H322M lung = system: NCI-H322M lung
KM12 colon = system: KM12 colon
UACC-257 melanoma = system: UACC-257 melanoma
M14 melanoma = system: M14 melanoma
MCF7 breast = system: MCF7 breast
A498 renal = system: A498 renal
NCI-H23 lung = system: NCI-H23 lung
MDA-MB-468 breast = system: MDA-MB-468 breast
UO-31 renal = system: UO-31 renal
NCI/ADR-RES ovarian = system: NCI/ADR-RES ovarian
HOP-62 NSCLC = system: HOP-62 NSCLC
OVCAR-3 ovarian = system: OVCAR-3 ovarian
SF-539 CNS = system: SF-539 CNS
MOLT-4 leukemia = system: MOLT-4 leukemia
SK-OV-3 ovarian = system: SK-OV-3 ovarian
MALME-3M melanoma = system: MALME-3M melanoma
MDA-MB-435 melanoma = system: MDA-MB-435 melanoma
HCT-116 colon = system: HCT-116 colon
UACC-62 melanoma = system: UACC-62 melanoma
LOX IMVI melanoma = system: LOX IMVI melanoma
K-562 leukemia = system: K-562 leukemia
RPMI-8226 leukemia = system: RPMI-8226 leukemia
NCI-H460 NSCLC = system: NCI-H460 NSCLC
A549 NSCLC = system: A549 NSCLC
BT-549 breast = system: BT-549 breast
786-0 renal = system: 786-0 renal
HOP-92 NSCLC = system: HOP-92 NSCLC
CAKI-1 renal = system: CAKI-1 renal
SK-MEL-2 melanoma = system: SK-MEL-2 melanoma
SK-MEL-5 melanoma = system: SK-MEL-5 melanoma
SN12C renal = system: SN12C renal
SW-620 colon = system: SW-620 colon
SNB-75 CNS = system: SNB-75 CNS
NCI-H226 lung = system: NCI-H226 lung
HS 578T breast = system: HS 578T breast

`Cc1cnc(-c2ccc(-c3ccc(NC(=O)Nc4cccc(C(F)(F)F)c4)cc3F)c3c2C(=O)NC3)[nH]1` was tested, and the GI50 (MDA-MB-231 breast) was 1.68 µM, the TGI (MDA-MB-231 breast) was 8.56 µM and the GI50 (TK-10 renal) was 1.05 µM. It also gave a TGI (TK-10 renal) of 4.47 µM, a GI50 (OVCAR-4 ovarian) of 0.0965 µM and a TGI (OVCAR-4 ovarian) of 2.66 µM. It also gave a GI50 (PC-3 prostate) of 1.96 µM, a TGI (PC-3 prostate) of 5.35 µM and a GI50 (ACHN renal) of 0.681 µM. It also gave a TGI (ACHN renal) of 10.3 µM, a GI50 (HCT-15 colon) of 0.926 µM and a TGI (HCT-15 colon) of 4.45 µM. The GI50 (EKVX NSCLC) was 0.0917 µM, the TGI (EKVX NSCLC) was 4.16 µM and the GI50 (SK-MEL-28 melanoma) was 1.3 µM. For the same compound, the TGI (SK-MEL-28 melanoma) was 12.2 µM, the GI50 (IGROV1 ovarian) was 1.32 µM and the TGI (IGROV1 ovarian) was 12.4 µM. For the same compound, the GI50 (DU-145 prostate) was 1.27 µM, the TGI (DU-145 prostate) was 7.71 µM and the GI50 (T-47D breast) was 2.06 µM. For the same compound, the TGI (T-47D breast) was 6.71 µM, the GI50 (RXF 393 renal) was 0.923 µM and the TGI (RXF 393 renal) was 3.4 µM. The GI50 (HT29 colon) was 2.18 µM, the TGI (HT29 colon) was 13.6 µM and the GI50 (NCI-H522 lung) was 0.0345 µM. The TGI (NCI-H522 lung) was 1.6 µM, the GI50 (U251 glioblastoma) was 1.34 µM and the TGI (U251 glioblastoma) was 3.17 µM. It also gave a GI50 (SF-268 CNS) of 0.261 µM, a TGI (SF-268 CNS) of 3 µM and a GI50 (HCC-2998 colon) of 2.86 µM. It also gave a TGI (HCC-2998 colon) of 6.7 µM, a GI50 (HL-60(TB) leukemia) of 0.0162 µM and a TGI (HL-60(TB) leukemia) of 1.05 µM. The GI50 (SNB-19 CNS) was 1.7 µM, the TGI (SNB-19 CNS) was 4.54 µM and the GI50 (OVCAR-8 ovarian) was 1.21 µM. The TGI (OVCAR-8 ovarian) was 10.5 µM, the GI50 (OVCAR-5 ovarian) was 5.69 µM and the TGI (OVCAR-5 ovarian) was 22.7 µM. For the same compound, the GI50 (SF-295 CNS) was 0.0933 µM, the TGI (SF-295 CNS) was 4.69 µM and the GI50 (SR leukemia) was < 0.01 µM. For the same compound, the TGI (SR leukemia) was 0.0144 µM, the GI50 (NCI-H322M lung) was 7.12 µM and the TGI (NCI-H322M lung) was 26.5 µM. For the same compound, the GI50 (KM12 colon) was < 0.01 µM, the TGI (KM12 colon) was 1.32 µM and the GI50 (UACC-257 melanoma) was 1.73 µM. It also gave a TGI (UACC-257 melanoma) of 9.25 µM, a GI50 (M14 melanoma) of 0.126 µM and a TGI (M14 melanoma) of 3.18 µM. It also gave a GI50 (MCF7 breast) of 1.08 µM, a TGI (MCF7 breast) of 4.28 µM and a GI50 (A498 renal) of 0.134 µM. For the same compound, the TGI (A498 renal) was 2.21 µM, the GI50 (NCI-H23 lung) was 0.783 µM and the TGI (NCI-H23 lung) was 2.39 µM. For the same compound, the GI50 (MDA-MB-468 breast) was 0.0282 µM, the TGI (MDA-MB-468 breast) was 0.0754 µM and the GI50 (UO-31 renal) was 0.0817 µM. The TGI (UO-31 renal) was 1.46 µM, the GI50 (NCI/ADR-RES ovarian) was 24 µM and the TGI (NCI/ADR-RES ovarian) was > 100 µM. For the same compound, the GI50 (HOP-62 NSCLC) was 0.103 µM, the TGI (HOP-62 NSCLC) was 2.03 µM and the GI50 (OVCAR-3 ovarian) was 0.0755 µM. It also gave a TGI (OVCAR-3 ovarian) of 2.11 µM, a GI50 (SF-539 CNS) of 0.0609 µM and a TGI (SF-539 CNS) of 1.74 µM. For the same compound, the GI50 (MOLT-4 leukemia) was < 0.01 µM, the TGI (MOLT-4 leukemia) was 0.0117 µM and the GI50 (SK-OV-3 ovarian) was 0.926 µM. It also gave a TGI (SK-OV-3 ovarian) of 4.14 µM, a GI50 (MALME-3M melanoma) of 0.59 µM and a TGI (MALME-3M melanoma) of 3.82 µM. It also gave a GI50 (MDA-MB-435 melanoma) of 1.27 µM, a TGI (MDA-MB-435 melanoma) of 10.1 µM and a GI50 (HCT-116 colon) of 0.248 µM. For the same compound, the TGI (HCT-116 colon) was 2.22 µM, the GI50 (UACC-62 melanoma) was 0.276 µM and the TGI (UACC-62 melanoma) was 4.73 µM. For the same compound, the GI50 (LOX IMVI melanoma) was 0.444 µM, the TGI (LOX IMVI melanoma) was 2.37 µM and the GI50 (K-562 leukemia) was 0.0516 µM. For the same compound, the TGI (K-562 leukemia) was 1.3 µM, the GI50 (RPMI-8226 leukemia) was 0.031 µM and the TGI (RPMI-8226 leukemia) was 1.49 µM. For the same compound, the GI50 (NCI-H460 NSCLC) was 0.0381 µM, the TGI (NCI-H460 NSCLC) was 1.36 µM and the GI50 (A549 NSCLC) was 1.05 µM. For the same compound, the TGI (A549 NSCLC) was 6.4 µM, the GI50 (BT-549 breast) was 0.13 µM and the TGI (BT-549 breast) was 2.82 µM. It also gave a GI50 ([…]-0 renal) of 1.47 µM, a TGI (786-0 renal) of 3.73 µM and a GI50 (HOP-92 NSCLC) of 0.685 µM. The TGI (HOP-92 NSCLC) was 3.31 µM, the GI50 (CAKI-1 renal) was 0.145 µM and the TGI (CAKI-1 renal) was 8.83 µM. For the same compound, the GI50 (SK-MEL-2 melanoma) was 0.751 µM, the TGI (SK-MEL-2 melanoma) was 3.24 µM and the GI50 (SK-MEL-5 melanoma) was 1.01 µM. The TGI (SK-MEL-5 melanoma) was 4.35 µM, the GI50 (SN12C renal) was 0.0755 µM and the TGI (SN12C renal) was 2.27 µM. The GI50 (SW-620 colon) was 0.0835 µM, the TGI (SW-620 colon) was 3.64 µM and the GI50 (SNB-75 CNS) was 1.13 µM. For the same compound, the TGI (SNB-75 CNS) was 2.66 µM, the GI50 (NCI-H226 lung) was 0.284 µM and the TGI (NCI-H226 lung) was 3.15 µM. For the same compound, the GI50 (HS 578T breast) was 0.0503 µM and the TGI (HS 578T breast) was 1.53 µM.
